The values that follow come from US20240124504A1, “AROMATIC HETEROCYCLIC COMPOUND, AND PHARMACEUTICAL COMPOSITION AND APPLICATION THEREOF” (GT APEIRON THERAPEUTICS LIMITED, priority 2020, published 2024).

pIC50: −log10 of the molar value.

In test [1] the test system is human breast cancer cells HCC70. Nature of the test: Cell biological activity detection (CyQuant, 72 hours), HCC70. In kind it is cell-based. The note with it: incubation for 72 hours. As for the experimental part: (§1) A2780 and HCC70 cells were subjected to trypsin digestion treatment, and cell suspensions were respectively transferred to 15 mL centrifuge tubes and centrifuged for 5 min at […]) rpm; supernatant was discarded, and resuspension was carried out in a fresh medium (RPMI 1640+10% FBS), after counting, cells were seeded into a 384-well plate at 2000/well (50 μL of 1640+10% FBS medium was added to the 2nd column and the 23rd column of the 384-well plate, and 50 μL of DPBS was added to the surrounding wells). Incubation was carried out overnight in an incubator (37° C., 5% CO2).
(§2) The compound was added to the well plates the next day. The compound had the highest concentration of 10 μM and was diluted at 1:4, and there were a total of 9 concentrations; and a positive compound Paclitaxel had the highest concentration of 1 μM and was diluted at 1:3, and there were a total of 9 concentrations. The DMSO content in each well was unified to 0.2%. The cell plates were centrifuged for 30 seconds at 800 rpm and placed in an incubator (37° C., 5% CO2) for incubation for 72 hours. On the fourth day, a Cyquant reagent (3×) was formulated according to kit instructions, and formulation was carried out for each 384-well plate according to the following proportions: DPBS 11.568 mL, CyQuant®? Direct nucleic acid stain 72 μL, and CyQuant® Direct background suppressor 360 μL. After uniform mixing, the reagent was placed at room temperature for further use. The cell plates were taken out and equilibrated for 30 min at room temperature, and 25 μL of the Cyquant reagent (3×) per well was dispensed into the cells of the 384-well plates by Multi-drop, and incubation was carried out for more than 60 minutes at 37° C. Acumen plate reading (Acumen setting: an excitation wavelength of 488 nm). IC50 results were analyzed by XLFIT5 from IDBS Company.

The subject of test [2] is ovarian cancer A2780. Nature of the test: Cell biological activity detection (CyQuant, 72 hours), A2780. In kind it is cell-based, human. The following applies: A2780 cells, incubation for 72 hours. On the procedure: as §1, §2
In test [3] the target is CDK9/cyclinT1 complex (Homo sapiens, UniProt P50750). Nature of the test: In-vitro enzymatic inhibitory activity testing, CDK9 inhibition assay (Caliper EZ Reader II). It is filed as biochemical. The note with it: CDK9/cyclinT1 8 nM, 180 min at 27° C. In short, it runs like this: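 Phosphorylated and unphosphorylated fluorescent peptide were resolved by mobility-shift electrophoresis, with IC50 taken from a nonlinear regression of dose-response data. Reactions ran 180 min at 27 °C in MES buffer pH 6.5 with MgCl2, after 10 min enzyme–compound preincubation, using 8 nM CDK9/cyclinT1 and 5-FAM-CDK9tide.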
Chain of CDK9/cyclinT1 complex (P50750 whole entry, species assumed): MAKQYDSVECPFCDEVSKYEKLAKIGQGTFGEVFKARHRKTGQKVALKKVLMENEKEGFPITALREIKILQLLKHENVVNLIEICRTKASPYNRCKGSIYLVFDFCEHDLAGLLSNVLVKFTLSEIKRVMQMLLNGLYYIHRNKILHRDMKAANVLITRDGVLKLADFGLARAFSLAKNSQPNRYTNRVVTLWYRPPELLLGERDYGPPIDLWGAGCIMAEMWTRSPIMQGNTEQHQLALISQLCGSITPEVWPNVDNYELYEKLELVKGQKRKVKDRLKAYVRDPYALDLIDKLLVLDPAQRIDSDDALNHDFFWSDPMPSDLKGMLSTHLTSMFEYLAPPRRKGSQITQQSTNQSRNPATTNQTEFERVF
Chain of CDK9/cyclinT1 complex (O60563 whole entry partner, species assumed): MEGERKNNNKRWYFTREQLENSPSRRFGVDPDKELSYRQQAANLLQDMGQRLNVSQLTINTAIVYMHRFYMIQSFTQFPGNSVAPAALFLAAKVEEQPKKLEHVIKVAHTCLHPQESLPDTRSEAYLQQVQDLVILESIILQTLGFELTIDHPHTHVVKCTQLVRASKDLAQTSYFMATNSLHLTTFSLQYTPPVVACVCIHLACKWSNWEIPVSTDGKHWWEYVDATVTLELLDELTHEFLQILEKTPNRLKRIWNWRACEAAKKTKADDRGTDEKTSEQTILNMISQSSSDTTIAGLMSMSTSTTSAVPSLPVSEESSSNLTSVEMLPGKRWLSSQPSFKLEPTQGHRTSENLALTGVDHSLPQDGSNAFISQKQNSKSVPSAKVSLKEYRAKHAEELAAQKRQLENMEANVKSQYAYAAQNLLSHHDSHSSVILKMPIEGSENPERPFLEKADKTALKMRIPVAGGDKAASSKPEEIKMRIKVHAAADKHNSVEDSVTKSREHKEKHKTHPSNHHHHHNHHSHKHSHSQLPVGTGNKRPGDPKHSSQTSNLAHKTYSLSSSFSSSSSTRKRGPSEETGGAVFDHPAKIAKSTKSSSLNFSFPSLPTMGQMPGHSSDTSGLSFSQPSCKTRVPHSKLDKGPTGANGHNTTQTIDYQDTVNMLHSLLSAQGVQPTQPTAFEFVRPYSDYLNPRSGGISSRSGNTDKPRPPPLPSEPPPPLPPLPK

Test [4] concerns the target T1, CDK12 (aa686-1082)/cyclinK complex (Homo sapiens, UniProt Q9NYV4).
T1 construct: A CDK12 (aa686-1082)/cyclinK complex (50 nM)
Briefly: In-vitro enzymatic inhibitory activity testing, CDK12 inhibition assay (Caliper EZ Reader II). It is filed as biochemical. The following applies: CDK12/cyclinK 50 nM, 180 min at 27° C.; read-out: CDK12 IC50. An outline of the steps:
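CDK12 (aa686-1082)/cyclinK complex at 50 nM was pre-incubated with compound for 10 min, then reacted 180 min at 27° C with ATP and 2 μM 5-FAM-CDK9tide in pH 6.5 MES buffer with 10 mM MgCl2. Reactions were EDTA-quenched and product resolved electrophoretically; IC50 from nonlinear curve fit.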

The target in test [5] is CDK7/cyclinH/MAT1 complex (Homo sapiens, UniProt P50613). Briefly: In-vitro enzymatic inhibitory activity testing, CDK7 inhibition assay (Caliper EZ Reader II). It is filed as biochemical. The following applies: CDK7/cyclinH/MAT1 6 nM, 180 min at 27° C. In short, it runs like this: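 Enzyme preincubated 10 min with compound, then peptide substrate plus ATP added in 80 mM MES pH 6.5, 10 mM MgCl2 buffer; 180 min at 27 °C, stopped with EDTA.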
Chain of CDK7/cyclinH/MAT1 complex (P50613 whole entry, species assumed): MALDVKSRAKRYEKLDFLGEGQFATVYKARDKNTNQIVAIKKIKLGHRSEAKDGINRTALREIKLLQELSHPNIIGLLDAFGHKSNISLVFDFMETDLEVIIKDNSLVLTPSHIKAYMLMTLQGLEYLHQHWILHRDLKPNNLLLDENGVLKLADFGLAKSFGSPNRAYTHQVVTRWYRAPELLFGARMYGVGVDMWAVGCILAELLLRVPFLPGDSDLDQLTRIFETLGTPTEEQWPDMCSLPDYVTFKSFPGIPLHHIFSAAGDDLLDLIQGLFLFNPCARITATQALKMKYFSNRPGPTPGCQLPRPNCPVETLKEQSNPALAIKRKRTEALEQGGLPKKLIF
Chain of CDK7/cyclinH/MAT1 complex (P51946 whole entry partner, species assumed): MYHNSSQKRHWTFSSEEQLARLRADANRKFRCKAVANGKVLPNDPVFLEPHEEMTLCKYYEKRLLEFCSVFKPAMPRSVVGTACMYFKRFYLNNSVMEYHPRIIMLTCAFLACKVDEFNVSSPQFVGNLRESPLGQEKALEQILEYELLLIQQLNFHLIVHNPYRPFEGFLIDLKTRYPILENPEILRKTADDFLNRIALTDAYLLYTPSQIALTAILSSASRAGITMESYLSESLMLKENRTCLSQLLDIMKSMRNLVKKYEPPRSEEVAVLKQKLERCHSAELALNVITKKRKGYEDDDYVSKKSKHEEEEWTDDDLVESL
Chain of CDK7/cyclinH/MAT1 complex (P51948 whole entry partner, species assumed): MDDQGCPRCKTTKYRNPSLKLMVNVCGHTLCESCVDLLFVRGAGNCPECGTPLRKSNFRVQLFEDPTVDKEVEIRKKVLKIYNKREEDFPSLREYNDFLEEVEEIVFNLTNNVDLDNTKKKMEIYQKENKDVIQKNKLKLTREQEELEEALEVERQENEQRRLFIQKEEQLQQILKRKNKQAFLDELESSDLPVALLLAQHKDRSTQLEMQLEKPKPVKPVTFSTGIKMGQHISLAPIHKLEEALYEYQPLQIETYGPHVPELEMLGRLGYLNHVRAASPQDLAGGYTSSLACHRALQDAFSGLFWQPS

The target of test [6] is CDK2/cyclinE1 complex (Homo sapiens, UniProt P24941). Briefly: In-vitro enzymatic inhibitory activity testing, CDK2 inhibition assay (Caliper EZ Reader II). In kind it is biochemical. The note with it: CDK2/cyclinE1 0.5 nM, 180 min at 27° C. In short, it runs like this: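 CDK2/cyclinE1 (0.5 nM) phosphorylated 5-FAM-CDK7tide (2 μM) in MES buffer pH 6.5 with MgCl2, Tween 20 and BSA. Substrate and product were separated electrophoretically on a Caliper EZ Reader II. IC50 values came from nonlinear dose-response fits.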

T1 sequence (Q9NYV4 686-1082, species assumed): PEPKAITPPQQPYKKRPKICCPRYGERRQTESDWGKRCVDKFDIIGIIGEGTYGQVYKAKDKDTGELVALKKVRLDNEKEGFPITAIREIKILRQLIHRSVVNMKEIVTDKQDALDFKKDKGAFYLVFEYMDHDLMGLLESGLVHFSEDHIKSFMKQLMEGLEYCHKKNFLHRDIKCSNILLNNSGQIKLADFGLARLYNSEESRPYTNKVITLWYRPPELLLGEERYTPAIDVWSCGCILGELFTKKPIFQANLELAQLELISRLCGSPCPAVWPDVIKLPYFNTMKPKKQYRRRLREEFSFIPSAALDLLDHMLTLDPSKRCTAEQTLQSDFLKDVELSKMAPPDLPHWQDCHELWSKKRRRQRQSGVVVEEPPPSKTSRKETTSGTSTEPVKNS
T1 sequence (O75909 whole entry partner, species assumed, the tested form may be a part): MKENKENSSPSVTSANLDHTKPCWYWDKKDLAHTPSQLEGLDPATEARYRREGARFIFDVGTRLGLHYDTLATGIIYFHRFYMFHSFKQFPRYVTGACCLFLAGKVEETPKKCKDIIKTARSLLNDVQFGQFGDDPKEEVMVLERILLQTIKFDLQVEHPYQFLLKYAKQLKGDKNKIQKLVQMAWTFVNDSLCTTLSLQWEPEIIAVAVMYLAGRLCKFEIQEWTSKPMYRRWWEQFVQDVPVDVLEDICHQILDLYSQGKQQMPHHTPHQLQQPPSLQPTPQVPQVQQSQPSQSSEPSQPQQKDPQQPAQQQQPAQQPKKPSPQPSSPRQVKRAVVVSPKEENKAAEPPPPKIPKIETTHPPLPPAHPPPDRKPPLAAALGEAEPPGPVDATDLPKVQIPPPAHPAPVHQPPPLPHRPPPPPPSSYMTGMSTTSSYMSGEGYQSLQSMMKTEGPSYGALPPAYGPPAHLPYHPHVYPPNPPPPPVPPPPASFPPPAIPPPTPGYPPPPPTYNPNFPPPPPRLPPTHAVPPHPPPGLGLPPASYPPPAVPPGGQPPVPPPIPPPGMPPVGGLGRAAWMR

On to `Cc1cnc(N[C@@H](C)CO)nc1-c1c[nH]c2c(P(C)(C)=O)cccc12` [Compound 178], for which the pIC50 (usually −log10 of the IC50, conventionally taken in molar units) in test [1] (Homo sapiens, HCC70, 72 h) is 5.30 to 6.70; in test [2] (Homo sapiens, A2780, 72 h), 6.70 to 7.70; in test [3], less than 4.30; in test [4], less than 4.30; in test [5], 6.70 to 7.70; in test [6] it was 4.30 to 5.30.

For `CP(C)(=O)c1cccc2c(-c3nc(NCC4(O)CCOC4)ncc3C(F)(F)F)c[nH]c12` (single isomer, unassigned) [Compound 122], the pIC50 is 6.70 to 7.70 in test [1]; 5.30 to 6.70 in test [2]; less than 4.30 in test [3]; less than 4.30 in test [4]; 6.70 to 7.70 in test [5]; 4.30 to 5.30 in test [6].

For `FC(F)(F)c1cnc(NC2COC3(CCCNC3)C2)nc1-c1c[nH]c2nc(N3CCOCC3)ccc12` (stereo not drawn) [Compound 50, N-(4-(6-morpholinyl-1H-pyrrolo[2,3-b]pyridin-3-yl)-5-(trifluoromethyl)pyrimidin-2-yl)-1-oxa-7-azaspiro[4.5]decan-3-amine], the pIC50 in test [1] (Homo sapiens, HCC70, 72 h) is 5.30 to 6.70; in test [2] (Homo sapiens, A2780, 72 h), 5.30 to 6.70; in test [3], less than 4.30; in test [4], 4.30 to 5.30; in test [5] it was 5.30 to 6.70; in test [6], 4.30 to 5.30.

In the case of `CP(C)(=O)c1cccc2c(-c3nc(NC4(CO)CCOCC4)ncc3C(F)(F)F)c[nH]c12` [Compound 166, (3-(2-((4-(hydroxymethyl)tetrahydro-2H-pyran-4-yl)amino)-5-(trifluoromethyl)pyrimidin-4-yl)-1H-indole-7-yl)dimethylphosphine oxide], the pIC50 in test [1] (Homo sapiens, HCC70, 72 h) is 5.30 to 6.70; in test [2] (Homo sapiens, A2780, 72 h), 5.30 to 6.70; in test [3] it was less than 4.30; in test [4], less than 4.30; in test [5], 6.70 to 7.70; in test [6] it was less than 4.30.

Consider `CN(C)CC1CCCC1Nc1ncc(C(F)(F)F)c(-c2c[nH]c3c(P(C)(C)=O)cccc23)n1` (single isomer, unassigned) [Compound 135], for which the negative logarithm of the IC50 (pIC50) in test [1] (Homo sapiens, HCC70, 72 h) is more than 7.70; in test [2] (Homo sapiens, A2780, 72 h) it was more than 7.70; in test [3], 4.30 to 5.30; in test [4], 5.30 to 6.70; in test [5] it was more than 7.70; in test [6], 5.30 to 6.70.

Turning to `CP(C)(=O)c1cccc2c(-c3nc(N[C@@H]4COCC[C@H]4O)ncc3C(F)(F)F)c[nH]c12` [Compound 167], the pIC50 in test [1] (Homo sapiens, HCC70, 72 h) was 5.30 to 6.70; in test [2] (Homo sapiens, A2780, 72 h), 5.30 to 6.70; in test [3] it was less than 4.30; in test [4], less than 4.30; in test [5] it was 6.70 to 7.70; in test [6], less than 4.30.

As for `Cc1noc(C)c1-c1ccc2c(-c3nc(NC4CCC5(CCNC5)C4)ncc3C(F)(F)F)c[nH]c2n1` (stereo not drawn) [Compound 35, N-(4-(6-(3,5-dimethylisoxazol-4-yl)-1H-pyrrolo[2,3-b]pyridin-3-yl)-5-(trifluoromethyl)pyrimidin-2-yl)-2-azaspiro[4.4]non-7-amine], the pIC50 in test [1] (Homo sapiens, HCC70, 72 h) is 6.70 to 7.70; in test [2] (Homo sapiens, A2780, 72 h), 6.70 to 7.70; in test [3] it was 5.30 to 6.70; in test [4], 5.30 to 6.70; in test [5], more than 7.70; in test [6], 5.30 to 6.70.

`CC1(C)COCC(Nc2ncc(C(F)(F)F)c(-c3c[nH]c4nc(C#N)ccc34)n2)CN1` (stereo not drawn) [Compound 62, 3-(2-((3,3-dimethyl-1,4-oxazepan-6-yl)amino)-5-(trifluoromethyl)pyrimidin-4-yl)-1H-pyrrolo[2,3-b]pyridine-6-carbonitrile]: the pIC50 in test [1] (Homo sapiens, HCC70, 72 h) was 5.30 to 6.70; in test [2] (Homo sapiens, A2780, 72 h), 5.30 to 6.70; in test [3] it was less than 4.30; in test [4] it was 4.30 to 5.30; in test [5], 6.70 to 7.70; in test [6], less than 4.30.

For the molecule `CC1(C)COCC(Nc2ncc(C(F)(F)F)c(-c3c[nH]c4nc(C#N)ccc34)n2)CN1` (single isomer, unassigned) [Compound 63], the pIC50 in test [1] (Homo sapiens, HCC70, 72 h) is 5.30 to 6.70; in test [2] (Homo sapiens, A2780, 72 h), 5.30 to 6.70; in test [3] it was less than 4.30; in test [4], 4.30 to 5.30; in test [5], 6.70 to 7.70; in test [6], less than 4.30.

Consider `FC(F)(F)c1cnc(NC2CCC23CCNC3)nc1-c1c[nH]c2nc(N3CCOCC3)ccc12` (stereo not drawn) [Compound 37, N-(4-(6-morpholinyl-1H-pyrrolo[2,3-b]pyridin-3-yl)-5-(trifluoromethyl)pyrimidin-2-yl)-6-azaspiro[3.4]octan-1-amine], for which the negative logarithm of the IC50 (pIC50) is 5.30 to 6.70 in test [1] (Homo sapiens, HCC70, 72 h); 5.30 to 6.70 in test [2] (Homo sapiens, A2780, 72 h); 4.30 to 5.30 in test [3]; 4.30 to 5.30 in test [4]; 6.70 to 7.70 in test [5]; 4.30 to 5.30 in test [6].

For the molecule `FC(F)(F)c1cnc(NC2C3CNCC32)nc1-c1c[nH]c2nc(N3CCOCC3)ccc12` (stereo not drawn) [Compound 46, N-(4-(6-morpholinyl-1H-pyrrolo[2,3-b]pyridin-3-yl)-5-(trifluoromethyl)pyrimidin-2-yl)-3-azabicyclo[3.1.0]n-hexan-6-amine], the pIC50 in test [1] (Homo sapiens, HCC70, 72 h) is 5.30 to 6.70; in test [2] (Homo sapiens, A2780, 72 h) it was 5.30 to 6.70; in test [3], 4.30 to 5.30; in test [4] it was 4.30 to 5.30; in test [5], 5.30 to 6.70; in test [6], 4.30 to 5.30.

`C[C@@H](CO)Nc1ncc(C(F)(F)F)c(-c2c[nH]c3nc(C4=CCOCC4)ccc23)n1` [Compound 181, (S)-2-((4-(6-(3,6-dihydro-2H-pyran-4-yl)-1H-pyrrolo[2,3-b]pyridin-3-yl)-5-(trifluoromethyl)pyrimidin-2-yl)amino)propan-1-ol]: the pIC50 in test [1] (Homo sapiens, HCC70, 72 h) is 5.30 to 6.70; in test [2] (Homo sapiens, A2780, 72 h), 6.70 to 7.70; in test [3] it was less than 4.30; in test [4] it was 4.30 to 5.30; in test [5], 6.70 to 7.70; in test [6], 5.30 to 6.70.

In the case of `CP(C)(=O)c1cccc2c(-c3nc(NC4(CO)CCCC4)ncc3C(F)(F)F)c[nH]c12` [Compound 116, (3-(2-((1-(hydroxymethyl)cyclopentyl)amino)-5-(trifluoromethyl)pyrimidin-4-yl)-1H-indole-7-yl)dimethylphosphine oxide], the pIC50 in test [1] (Homo sapiens, HCC70, 72 h) was 6.70 to 7.70; in test [2] (Homo sapiens, A2780, 72 h), 6.70 to 7.70; in test [3] it was less than 4.30; in test [4], less than 4.30; in test [5], 6.70 to 7.70; in test [6] it was 4.30 to 5.30.

As to `FC(F)(F)c1cnc(NC2CCC3CNCC32)nc1-c1c[nH]c2nc(N3CCOCC3)ccc12` (single isomer, unassigned) [Compound 57], the pIC50 was 5.30 to 6.70 in test [1]; 5.30 to 6.70 in test [2]; less than 4.30 in test [3]; less than 4.30 in test [4]; 5.30 to 6.70 in test [5]; less than 4.30 in test [6].

On to `C[C@H](Nc1ncc(C(F)(F)F)c(-c2c[nH]c3c(P(C)(C)=O)cccc23)n1)C(C)(C)O` [Compound 163, (S)-(3-(2-((3-hydroxy-3-methylbutan-2-yl)amino)-5-(trifluoromethyl)pyrimidin-4-yl)-1H-indole-7-yl)dimethylphosphine oxide], for which the pIC50 in test [1] (Homo sapiens, HCC70, 72 h) is 5.30 to 6.70; in test [2] (Homo sapiens, A2780, 72 h), 6.70 to 7.70; in test [3] it was less than 4.30; in test [4], less than 4.30; in test [5], 6.70 to 7.70; in test [6], 4.30 to 5.30.

`CP(C)(=O)c1cccc2c(-c3nc(NC[C@H]4C[C@H]4CO)ncc3C(F)(F)F)c[nH]c12` [Compound 141, (3-(2-((((1S,2R)-2-(hydroxymethyl)cyclopropyl)methyl)amino)-5-(trifluoromethyl)pyrimidin-4-yl)-1H-indole-7-yl)dimethylphosphine oxide]: the pIC50 in test [1] (Homo sapiens, HCC70, 72 h) was 6.70 to 7.70; in test [2] (Homo sapiens, A2780, 72 h), 6.70 to 7.70; in test [3], less than 4.30; in test [4], less than 4.30; in test [5], more than 7.70; in test [6], 5.30 to 6.70.
